Results on two compounds are retold here after patent US8263530B2, “Agrochemical formulations containing microcapsules” (priority 2006, dated 2012).

This data set can be described thus: Storage stability: content of active ingredient in water dispersible granules. Type of data set: physicochemical. On the procedure: A test on the storage stability was performed with the following results:
Comparison of stability of fluoroxypyr and metsulfuon-methyl when a WG granulation is made according to U.S. Pat. No. 5,688,743 (Dow) and the encapsulation step has been omitted and replaced by a joint milling of the corresponding amount of fluoroxypyr and metsulfuron-methyl: […]

Setting [1] is: FXY + MET 26 WG (Fluroxypyr 250 g/kg + Metsulfuron 10 g/kg WG, microencapsulated fluroxypyr), test item FXY-MSF_0604, column without storage.
The mark [2] stands for this setting: FXY + MET 26 WG (microencapsulated fluroxypyr), GLASS, 0 ± 2° C., after storage.
[3] abbreviates: FXY + MET 26 WG (microencapsulated fluroxypyr), GLASS, 54 ± 2° C., after storage.
[4] abbreviates: FXY + MET 26 WG (microencapsulated fluroxypyr), PLASTIC, 0 ± 2° C., after storage.
Setting [5] is: FXY + MET 26 WG (microencapsulated fluroxypyr), PLASTIC, 54 ± 2° C., after storage.
Setting [6] is: Fluroxypyr 250 g/kg + Metsulfuron 10 g/kg WG WITHOUT microencapsulation of fluroxypyr (joint milling, per US 5,688,743), test item FXY-MSF_060/, column without storage.
Setting [7] is: WG WITHOUT microencapsulation of fluroxypyr, GLASS, 0 ± 2° C., after storage.
The mark [8] stands for this setting: WG WITHOUT microencapsulation of fluroxypyr, GLASS, 54 ± 2° C., after storage.
The mark [9] stands for this setting: WG WITHOUT microencapsulation of fluroxypyr, PLASTIC, 0 ± 2° C., after storage.
Setting [10] is: WG WITHOUT microencapsulation of fluroxypyr, PLASTIC, 54 ± 2° C., after storage.

Molecules are shown by their SMILES.

Consider `Nc1c(Cl)c(F)nc(OCC(=O)O)c1Cl` [Fluroxypyr], for which the “Content of active ingredient” value is recorded as 39.37 wt-% under setting [1]; 38.65 wt-% under setting [2]; 38.57 wt-% under setting [3]; 38.51 wt-% under setting [4]; 38.35 wt-% under setting [5]; 39.41 wt-% under setting [6]. Moreover, the “Content of active ingredient” value reads like this: under setting [7], 34.44 wt-%; under setting [8], 28.02 wt-%; under setting [9], 36.34 wt-%; under setting [10], 16.05 wt-%.

As for `COc1nc(C)nc(NC(=O)NS(=O)(=O)c2ccccc2C(=O)O)n1` [Metsulfuron], the “Content of active ingredient” value is recorded as 1.18 wt-% under setting [1]; 1.18 wt-% under setting [2]; 1.18 wt-% under setting [3]; 1.19 wt-% under setting [4]; 1.18 wt-% under setting [5]; 1.16 wt-% under setting [6]. In addition, the “Content of active ingredient” value is reported as 0.35 wt-% under setting [7], 0.21 wt-% under setting [8], 0.39 wt-% under setting [9] and 0.24 wt-% under setting [10].
